The source of these data is patent US20230277680A1, “CONJUGATE OF A SINGLE DOMAIN ANTIBODY, A SAPONIN AND AN EFFECTOR MOLECULE, PHARMACEUTICAL COMPOSITION COMPRISING THE SAME, THERAPEUTIC USE OF SAID PHARMACEUTICAL COMPOSITION” (SAPREME TECHNOLOGIES B.V., priority 2020, published 2023).

In one experiment the test system is A431 cells. The experiment can be described thus: Cell viability (MTS) assay, cell killing. The format is cell-based, human. The settings on record: read-out: [SO1861] IC50 cell killing, + fixed 10 μM cetuximab-saporin, calculated on concentration SO1861. The procedure:
(§1) After treatment the cells were incubated for 72 hr at 37° C. before the cell viability was determined by a MTS-assay, performed according to the manufacturer's instruction (CellTiter 96® AQueous One Solution Cell Proliferation Assay, Promega). Briefly, the MTS solution was diluted 20× in DMEM without phenol red (PAN-Biotech GmbH) supplemented with 10% FBS. The cells were washed once with 200 μL/PBS well, after which 100 μL diluted MTS solution was added/well. The plate was incubated for approximately 20-30 minutes at 37° C. Subsequently, the OD at 492 nm was measured on a Thermo Scientific Multiskan FC plate reader (Thermo Scientific). For quantification the background signal of ‘medium only’ wells was subtracted from all other wells, before the cell viability percentage of treated/untreated cells was calculated, by dividing the background corrected signal of treated wells over the background corrected signal of the untreated wells (×100). […]
(§2) After treatment the cells were incubated for 72 hr at 37° C. before the cell viability was determined by a MTS-assay, performed according to the manufacturer's instruction (CellTiter 96® AQueous One Solution Cell Proliferation Assay, Promega). […] Subsequently, the optical density at 492 nm was measured on a Thermo Scientific Multiskan FC plate reader (Thermo Scientific). […]

A further experiment relates to SK-BR-3 cells. Briefly: Cell viability (MTS) assay, cell killing. The format is cell-based, human. The settings on record: read-out: [SO1861] IC50 cell killing; SKBR3; + fixed 1.5 μM EGF-dianthin. The procedure: as §1, §2

Molecules are shown by their SMILES.

As for `CC(=O)O[C@H]1[C@H](O[C@@H]2OC[C@@H](O)[C@H](O)[C@H]2O)[C@@H](O)[C@H](O[C@@H]2[C@H](O)[C@@H](O[C@@H]3O[C@@H](C)[C@H](O[C@@H]4OC[C@@H](O)[C@H](O[C@@H]5OC[C@@H](O)[C@H](O)[C@H]5O)[C@H]4O)[C@@H](O)[C@H]3O)[C@H](OC(=O)[C@]34CCC(C)(C)C[C@H]3C3=CC[C@@H]5[C@@]6(C)CC[C@H](O[C@H]7O[C@H](C(=O)O)[C@@H](O)[C@H](O[C@@H]8OC[C@@H](O)[C@H](O)[C@H]8O)[C@H]7O[C@@H]7O[C@H](CO)[C@H](O)[C@H](O)[C@H]7O)[C@@](C)(C=O)[C@@H]6CC[C@@]5(C)[C@]3(C)C[C@H]4O)O[C@@H]2C)O[C@@H]1C` [SO1861], the IC50 with A431 cells is 600 nM; with SK-BR-3 cells, 800 nM.
